Results: the supplement of paper PMC10307832

Columns and labels:
Experiment in all cases: relative viability (nuclei count vs DMSO), 5 days (fraction); higher = more cells survive
Neratinib + Foretinib = compound: CCOc1cc2ncc(C#N)c(Nc3ccc(OCc4ccccn4)c(Cl)c3)c2cc1NC(=O)/C=C/CN(C)C [Neratinib] + COc1cc2c(Oc3ccc(NC(=O)C4(C(=O)Nc5ccc(F)cc5)CC4)cc3F)ccnc2cc1OCCCN1CCOCC1 [Foretinib] (partner 0.25 µM)
In short: (§1)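 A single step with final 0.05% Triton X-100, 1% formaldehyde and 1 ug/ml Hoechst fixed the cells and stained nuclei 5 days after treatment. Lung cancer cell lines in 1536-well plates had been treated by pin tool the day after seeding with one drug alone or a fixed anchor-drug dose plus five library-drug doses (not always all listed) in √10 steps, and nuclei were counted on 4× images. Relative viability is the ratio of nuclei in treated wells to nuclei in vehicle wells, taken as the median of duplicate plates.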

Neratinib + AZD7762 = compound: CCOc1cc2ncc(C#N)c(Nc3ccc(OCc4ccccn4)c(Cl)c3)c2cc1NC(=O)/C=C/CN(C)C [Neratinib] + NC(=O)Nc1cc(-c2cccc(F)c2)sc1C(=O)N[C@H]1CCCNC1 [AZD7762] (partner 0.2 µM)
In short: as §1

Neratinib + Vorinostat = compound: CCOc1cc2ncc(C#N)c(Nc3ccc(OCc4ccccn4)c(Cl)c3)c2cc1NC(=O)/C=C/CN(C)C [Neratinib] + O=C(CCCCCCC(=O)Nc1ccccc1)NO [Vorinostat] (partner 1 µM)
In short: as §1

Neratinib + Pictilisib = compound: CCOc1cc2ncc(C#N)c(Nc3ccc(OCc4ccccn4)c(Cl)c3)c2cc1NC(=O)/C=C/CN(C)C [Neratinib] + CS(=O)(=O)N1CCN(Cc2cc3nc(-c4cccc5[nH]ncc45)nc(N4CCOCC4)c3s2)CC1 [Pictilisib] (partner 1 µM)
In short: as §1

| Cell Line | relative viability (Neratinib + Foretinib; first compound 0.01 µM) | relative viability (Neratinib + Foretinib; first compound 0.03162 µM) | relative viability (Neratinib + Foretinib; first compound 0.1 µM) | relative viability (Neratinib + Foretinib; first compound 0.3162 µM) | relative viability (Neratinib + Foretinib; first compound 1 µM) | relative viability (Neratinib + AZD7762; first compound 0.03162 µM) | relative viability (Neratinib + AZD7762; first compound 0.1 µM) | relative viability (Neratinib + AZD7762; first compound 0.3162 µM) | relative viability (Neratinib + AZD7762; first compound 1 µM) | relative viability (Neratinib + Vorinostat; first compound 0.01 µM) | relative viability (Neratinib + Vorinostat; first compound 0.03162 µM) | relative viability (Neratinib + Vorinostat; first compound 0.1 µM) | relative viability (Neratinib + Vorinostat; first compound 0.3162 µM) | relative viability (Neratinib + Vorinostat; first compound 1 µM) | relative viability (Neratinib + Pictilisib; first compound 0.01 µM) | relative viability (Neratinib + Pictilisib; first compound 0.03162 µM) | relative viability (Neratinib + Pictilisib; first compound 0.1 µM) | relative viability (Neratinib + Pictilisib; first compound 0.3162 µM) | relative viability (Neratinib + Pictilisib; first compound 1 µM) | relative viability (Neratinib + AZD7762; first compound 0.01 µM) |
| --- | --- | --- | --- | --- | --- | --- | --- | --- | --- | --- | --- | --- | --- | --- | --- | --- | --- | --- | --- | --- |
| HCC-366 | 0.971 | 0.961 | 0.844 | 0.856 | 1.03 | 0.307 | 0.147 | 0.232 | 0.169 | 0.337 | 0.408 | 0.345 | 0.381 | 0.312 | 0.174 | 0.149 | 0.101 | 0.137 | 0.112 |  |
| NCI-H1975 |  | 1.02 | 0.972 | 0.421 | 0.174 | 0.847 | 0.619 | 0.362 | 0.303 | 0.764 | 0.822 | 0.723 | 0.354 | 0.264 | 0.328 | 0.372 | 0.209 | 0.104 | 0.143 | 0.855 |
| NCI-H1437 | 1.32 | 1.26 | 1.18 | 1.19 | 1.28 | 1.12 | 1.05 | 1.08 | 0.896 | 0.916 | 0.906 | 0.799 | 0.843 | 0.85 | 0.474 | 0.553 | 0.356 | 0.325 | 0.343 | 1.18 |
| NCI-H1651 | 0.789 | 0.867 | 0.715 | 0.593 | 0.464 | 0.521 | 0.416 | 0.328 | 0.246 | 0.605 | 0.582 | 0.505 | 0.508 | 0.513 | 0.661 | 0.633 | 0.422 | 0.449 | 0.343 | 0.503 |
| LCLC-103H | 0.926 | 0.805 | 0.704 | 0.697 | 0.496 | 0.812 | 0.655 | 0.857 | 0.68 |  | 0.822 | 0.72 | 0.796 | 0.775 | 0.597 | 0.668 | 0.575 | 0.582 | 0.587 | 0.818 |
| NCI-H1666 | 0.973 | 0.912 | 0.754 | 0.646 | 0.721 | 0.946 | 0.783 | 0.653 | 0.611 | 1.14 | 1.08 | 0.901 | 0.879 | 0.87 | 0.549 |  | 0.327 | 0.218 | 0.271 | 0.929 |
| NCI-H1734 | 0.953 | 0.887 | 0.683 | 0.775 | 0.469 | 0.555 | 0.457 | 0.505 | 0.36 | 0.997 | 0.766 | 0.743 | 0.752 | 0.6 | 0.5 | 0.464 | 0.428 | 0.432 | 0.346 | 0.584 |
| EPLC-272H |  | 0.431 | 0.45 | 0.419 | 0.194 | 0.193 | 0.112 | 0.181 | 0.205 | 0.287 | 0.498 | 0.415 | 0.332 | 0.269 | 0.376 | 0.387 | 0.316 | 0.338 | 0.307 | 0.209 |
| NCI-H2085 | 0.801 | 1.08 | 0.761 | 0.64 | 0.31 | 1.04 | 0.933 | 0.746 |  | 0.825 |  | 0.687 | 0.623 | 0.696 | 0.526 | 0.436 | 0.462 | 0.408 | 0.373 | 0.924 |
| BEN | 0.66 | 0.631 | 0.822 | 0.657 | 0.498 | 0.804 | 0.628 | 0.571 | 0.596 | 0.562 | 0.596 | 0.606 | 0.552 | 0.43 | 0.627 | 0.665 | 0.495 | 0.479 | 0.441 | 0.745 |
| ABC-1 | 1.16 | 1.12 | 0.689 | 0.954 | 0.466 | 0.659 | 0.682 | 0.779 |  | 1.57 |  | 0.813 | 1.13 | 0.713 | 0.783 | 0.582 | 0.672 | 0.666 | 0.387 | 0.955 |
| HCC-15 | 1.07 | 1.21 |  | 0.885 | 0.66 | 1.23 | 1.18 | 1.09 | 1.24 | 0.954 | 0.85 | 0.811 | 0.724 | 0.672 | 0.824 | 0.809 | 0.712 | 0.781 | 0.618 | 1.46 |
| NCI-H2170 | 1.04 | 1.07 | 0.909 | 0.303 | 0.27 | 0.549 | 0.515 | 0.177 | 0.159 | 0.862 | 0.647 | 0.407 | 0.205 | 0.239 | 0.314 | 0.253 | 0.206 | 0.189 | 0.256 | 0.816 |
| NCI-H358 | 0.613 | 0.478 | 0.339 | 0.154 | 0.103 | 0.508 | 0.358 | 0.257 | 0.223 | 0.659 | 0.538 | 0.282 | 0.148 | 0.106 | 0.302 | 0.336 | 0.231 | 0.295 | 0.228 | 0.533 |
| NCI-H1915 | 1.08 | 1.08 | 1.08 | 1.05 | 0.709 | 0.716 | 0.638 | 0.685 | 0.653 | 0.6 | 0.553 | 0.507 | 0.439 | 0.545 |  | 1.03 | 0.93 | 0.904 | 0.881 | 0.791 |
| LOU-NH91 | 0.971 | 0.82 | 0.644 | 0.542 | 0.504 | 0.728 | 0.717 | 0.664 | 0.496 | 0.936 |  | 0.748 |  | 0.609 | 0.53 | 0.496 | 0.483 | 0.484 | 0.469 | 0.791 |
